Our source for the EC50 values is ChEMBL document CHEMBL5727106, “Imidazol- or 1,2,4-triazol-derivatives and their use” (2019).

The term EC50 denotes the concentration that produces a half-maximal response.

The target of experiment [1] is T1, G-protein coupled bile acid receptor 1 (Mus musculus, UniProt Q80SS6).
T1 sequence (Q80SS6 whole entry): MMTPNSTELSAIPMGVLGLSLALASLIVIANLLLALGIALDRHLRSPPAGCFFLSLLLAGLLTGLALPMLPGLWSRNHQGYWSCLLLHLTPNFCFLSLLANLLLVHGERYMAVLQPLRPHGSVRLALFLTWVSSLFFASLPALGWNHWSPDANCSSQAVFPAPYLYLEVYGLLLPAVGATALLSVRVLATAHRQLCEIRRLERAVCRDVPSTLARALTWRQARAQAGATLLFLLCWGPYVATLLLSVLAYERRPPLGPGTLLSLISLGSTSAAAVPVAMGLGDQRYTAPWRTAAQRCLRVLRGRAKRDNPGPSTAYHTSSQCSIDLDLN
As to the kind of experiment: (§1) TGR5/CRE Luciferase Assay: In the following tables TGR5 activation by compounds and subsequent increase in intracellular cAMP were evaluated using a luciferase reporter gene assay. Human embryonic kidney (HEK) 293 cells were transiently co-transfected with pCMV tag4b-TGR5 h (to follow hTGR5 activation) or pCMV AC6-TGR5m (to follow mTGR5 activation) expression plasmids and the pCRE TA-Luciferase reporter plasmid using the JET PEI reagent (Polyplus transfection). Transfected cells were seeded in 96-well plates and incubated overnight with the test compounds at increasing concentrations tested in duplicate. Lithocolic acid (LCA) at 10 μM was used as a positive reference compound. The cAMP-dependent luciferase expression was followed using the BrightGlo reagent according to the manufacturer (Promega) instructions. Luminescence was read with a Mithras plate reader (Berthold). Data were expressed as percentage of the 10 μM LCA value and EC50 values were calculated using XL fit 5 software or GraphPad Prism 5. Concentration-response curves were fitted by a nonlinear regression analysis to a 4 parameter logistic equation. The format is cell-based.

The target of experiment [2] is T2, G-protein coupled bile acid receptor 1 (Homo sapiens, UniProt Q8TDU6).
T2 sequence (Q8TDU6 whole entry): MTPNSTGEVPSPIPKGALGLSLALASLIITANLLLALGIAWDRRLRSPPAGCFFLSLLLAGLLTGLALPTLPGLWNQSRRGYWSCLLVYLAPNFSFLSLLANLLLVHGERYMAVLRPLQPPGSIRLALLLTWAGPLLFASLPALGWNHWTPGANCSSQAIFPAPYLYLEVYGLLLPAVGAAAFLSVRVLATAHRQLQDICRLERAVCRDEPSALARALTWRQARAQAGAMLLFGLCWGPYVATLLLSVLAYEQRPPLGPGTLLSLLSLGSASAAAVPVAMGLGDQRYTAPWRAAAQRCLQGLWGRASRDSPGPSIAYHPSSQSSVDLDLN
The experiment is described as §1, with “Data were expressed as percentage of the 10 μM LCA value and EC50 values were calculated using XL fit 5 software or GraphPad Prism 5.” left out. The format is cell-based.

For `COCCOCCOCCOCCOCCOCCOCCOCCOCCOCCOCCOCCOCCOCCOCCOCCOCCOCCOCCOCCOCCOCCOCCOCCOCCOCCOCCOCCOCCOCCOCCOCCOCCOCCOCCOCCOCCOc1cc(F)c(CSc2ncc(N(C)c3ccc(OC)c(OC)c3)n2-c2ccc(F)cc2)c(F)c1`, the EC50 is 68 nM in experiment [1] and 1200 nM in experiment [2].
For `COCCOCCOCCOCCOCCOCCOCCOCCOCCOc1cc(F)c(CSc2ncc(N(C)c3ccc(OC)c(OC)c3)n2-c2ccc(F)cc2)c(F)c1` the same measures were 18 nM and 160 nM.
For `COCCOCCOCCOCCOCCOCCOCCOCCOCCOCCOCCOCCOCCOCCOCCOCCOc1cc(F)c(CSc2ncc(N(C)c3ccc(OC)c(OC)c3)n2-c2ccc(F)c(OC)c2)c(F)c1` the same measures were 26 nM and 330 nM.
For `COCCOCCOCCOCCOCCOCCOCCOCCOCCOCCOc1cc(F)c(CSc2ncc(N(C)c3ccc(OC)c(OC)c3)n2-c2ccc(F)cc2)c(F)c1` the same measures were 29 nM and 580 nM.
